Measured values taken from ChEMBL document CHEMBL3132804, “Synthesis and biological evaluation of novel quinoxalinone-based HIV-1 reverse transcriptase inhibitors” (Medchemcomm, 2014).

Legend:
[1] = system: Human immunodeficiency virus 1; assay: Antiviral activity against wild type HIV1 VSVG infected in 293ET cells assessed as inhibition of viral replication by luciferase reporter gene assay; format: functional, organism-based
[2] = system: Human immunodeficiency virus 1; assay: Antiviral activity against HIV1 VSVG harboring reverse transcriptase K103N mutant infected in 293ET cells assessed as inhibition of viral replication by luciferase reporter gene assay; format: functional, organism-based
[3] = system: Human immunodeficiency virus 1; assay: Antiviral activity against HIV1 VSVG harboring reverse transcriptase Y181C mutant infected in 293ET cellsassessed as inhibition of viral replication by luciferase reporter gene assay; format: functional, organism-based
[4] = system: Human immunodeficiency virus 1; assay: Selectivity ratio of IC50 for HIV1 VSVG harboring reverse transcriptase Y181C mutant to IC50 for wild type HIV1 VSVG; format: functional
[5] = system: Human immunodeficiency virus 1; assay: Selectivity ratio of IC50 for HIV1 VSVG harboring reverse transcriptase K103N mutant to IC50 for wild type HIV1 VSVG; format: functional
[6] = Human immunodeficiency virus 1, VSVG, 293ET, read-out: IC50

Structure (SMILES) | IC50 [1, 6] | IC50 [2] | IC50 [3] | Ratio IC50 [4] | Ratio IC50 [5] | IC50 ([1]; 293et)
Cc1ccnc2c1NC(=O)c1cccnc1N2C1CC1 [NEVIRAPINE] | 0.04 µM | 1.29 µM | > 10 µM | >250 | 32 | 
CC(C)=CCOC(=O)c1sccc1S(=O)(=O)N1c2cc(Cl)ccc2NC(=O)C1C (stereo unspecified) | 0.77 µM | > 10 µM | > 10 µM | >13 | >13 | 
CON(C)C(=O)c1sccc1S(=O)(=O)N1c2cc(Cl)ccc2NC(=O)C1C (stereo unspecified) |  |  |  |  |  | Not Active
COC(=O)c1sccc1S(=O)(=O)N1c2cc(Cl)ccc2NC(=O)C1C (stereo unspecified) |  | 2.6 µM | > 10 µM | >50 | 13 | 
CC1C(=O)Nc2ccc(Cl)cc2N1S(=O)(=O)c1ccsc1CO (stereo unspecified) |  |  |  |  |  | Not Active
COC(=O)c1sc(Br)cc1S(=O)(=O)N1c2cc(Cl)ccc2NC(=O)C1C (stereo unspecified) | 0.13 µM | 6.39 µM | > 10 µM | >77 | 49 | 
COC(=O)c1sc(-c2cccs2)cc1S(=O)(=O)N1c2cc(Cl)ccc2NC(=O)C1C (stereo unspecified) | 6.53 µM |  |  |  |  | 
CC1C(=O)Nc2ccc(Cl)cc2N1S(=O)(=O)c1ccsc1C=O (stereo unspecified) |  |  |  |  |  | Not Active
COC(=O)c1sc(-c2ccco2)cc1S(=O)(=O)N1c2cc(Cl)ccc2NC(=O)C1C (stereo unspecified) | 1.97 µM | > 10 µM | > 10 µM | >5 | >5 | 
CC1C(=O)Nc2ccc(Cl)cc2N1S(=O)(=O)c1ccsc1C(=O)O (stereo unspecified) |  |  |  |  |  | Not Active
CC1C(=O)Nc2ccc(Cl)cc2N1S(=O)(=O)c1cc(Cl)sc1C=O (stereo unspecified) |  |  |  |  |  | Not Active
CC1C(=O)Nc2ccc(Cl)cc2N1S(=O)(=O)c1cc(Cl)sc1/C=N\c1nccs1 (stereo unspecified) |  |  |  |  |  | Not Active
CC(C)OC(=O)c1sccc1S(=O)(=O)N1c2cc(Cl)ccc2NC(=O)C1C (stereo unspecified) | 1.09 µM | > 10 µM | > 10 µM | >9 | >9 | 
CC(C)OC(=O)c1sc(Cl)cc1S(=O)(=O)N1c2cc(Cl)ccc2NC(=O)C1C (stereo unspecified) | 5.55 µM |  |  |  |  | 
CC1C(=O)Nc2ccc(Cl)cc2N1S(=O)(=O)c1cc(Cl)sc1CO (stereo unspecified) |  |  |  |  |  | Not Active
COC(=O)c1sc(-c2cccc(OC)c2)cc1S(=O)(=O)N1c2cc(Cl)ccc2NC(=O)C1C (stereo unspecified) | 9.68 µM |  |  |  |  | 
COC(=O)c1sc(-c2ccccc2)cc1S(=O)(=O)N1c2cc(Cl)ccc2NC(=O)C1C (stereo unspecified) | 9.05 µM |  |  |  |  | 
COC(=O)c1sc(I)cc1S(=O)(=O)N1c2cc(Cl)ccc2NC(=O)C1C (stereo unspecified) | 0.075 µM | 6.68 µM | > 10 µM | >133 | 89 | 
CC1C(=O)Nc2ccc(Cl)cc2N1S(=O)(=O)c1ccsc1/C=N\c1nccs1 (stereo unspecified) |  |  |  |  |  | Not Active
CC1C(=O)Nc2ccc(Cl)cc2N1S(=O)(=O)c1cc(Cl)sc1CNc1nccs1 (stereo unspecified) |  |  |  |  |  | Not Active
CC1C(=O)Nc2ccc(Cl)cc2N1S(=O)(=O)c1cc(Cl)sc1C(=O)O (stereo unspecified) |  |  |  |  |  | Not Active
CC1C(=O)Nc2ccc(Cl)cc2N1S(=O)(=O)c1ccsc1CNc1nccs1 (stereo unspecified) |  |  |  |  |  | Not Active
CC(C)NC(=O)c1sccc1S(=O)(=O)N1c2cc(Cl)ccc2NC(=O)C1C (stereo unspecified) |  |  |  |  |  | Not Active
COC(=O)c1sc(Cl)cc1S(=O)(=O)N1c2cc(Cl)ccc2NC(=O)C1C (stereo unspecified) | 0.07 µM | 7.94 µM | > 10 µM | >143 | 113 | 
CC1C(=O)Nc2ccc(Cl)cc2N1S(=O)(=O)c1cc(Cl)sc1-c1cnco1 (stereo unspecified) | 4.44 µM |  |  |  |  | 
